HELM strings list units from the 5' end as sugar, base in round brackets, then linkage (d deoxyribose, r ribose, m 2'-O-methyl, p phosphodiester). Strings are as the collection lists them; they lack the last nucleoside at the 3' end of the tested compound. [moe] = 2'-O-(2-methoxyethyl) (MOE); [sp] = phosphorothioate linkage; [m5C] = 5-methylcytosine

This data set addresses UBE3A-ATS. Briefly: mouse, dose not given. The conditions noted are these: ASO.
Take “RNA1{[moe](A)[sp].[moe](G)p.[moe](A)p.[moe]([m5C])p.[moe]([m5C])p.d(T)[sp].d(A)[sp].d(T)[sp].d(A)[sp].d(G)[sp].d(G)[sp].d(A)[sp].d([m5C])[sp].d([m5C])[sp].d(T)[sp].[moe]([m5C])p.[moe](A)p.[moe](G)[sp].[moe](G)}$$$$ (last 3' nucleoside missing)”: the 3 h FOB score was 4 score 0-7. As for “RNA1{[moe](T)[sp].[moe]([m5C])p.[moe](A)p.[moe](T)[sp].d([m5C])[sp].d(T)[sp].d([m5C])[sp].d(G)[sp].d(G)[sp].d(G)[sp].d(T)[sp].d(A)[sp].[moe](T)p.[moe](A)p.[moe](T)p.[moe](A)[sp].[moe](A)}$$$$ (last 3' nucleoside missing)”, the figure is 5.3 score 0-7; as for “RNA1{[moe](A)[sp].[moe](G)p.[moe](G)p.[moe](A)p.[moe](T)p.d(T)[sp].d(A)[sp].d(A)[sp].d(A)[sp].d(A)[sp].d(G)[sp].d(T)[sp].d(T)[sp].d(G)[sp].d(A)[sp].[moe](A)p.[moe](A)p.[moe]([m5C])[sp].[moe](A)}$$$$ (last 3' nucleoside missing)”, 4 score 0-7. To “RNA1{[moe](G)[sp].[moe](T)p.[moe](T)p.[moe](A)p.[moe](G)p.d(G)[sp].d(T)[sp].d(T)[sp].d(A)[sp].d(G)[sp].d(T)[sp].d(G)[sp].d([m5C])[sp].d(A)[sp].d([m5C])[sp].[moe](A)p.[moe](G)p.[moe](A)[sp].[moe](T)}$$$$ (last 3' nucleoside missing)” belongs 6 score 0-7.

As to “RNA1{[moe](G)[sp].[moe]([m5C])p.[moe](T)p.[moe](G)p.[moe](A)p.[moe](T)[sp].d([m5C])[sp].d(A)[sp].d([m5C])[sp].d(A)[sp].d(T)[sp].d(T)[sp].d(A)[sp].d([m5C])[sp].[moe]([m5C])p.[moe]([m5C])[sp].[moe](A)}$$$$ (last 3' nucleoside missing)”, the 3 h FOB score worked out at 0 score 0-7. To “RNA1{[moe](G)[sp].[moe](G)p.[moe]([m5C])p.[moe]([m5C])p.[moe](T)p.d(G)[sp].d(A)[sp].d([m5C])[sp].d(T)[sp].d(A)[sp].d(G)[sp].d(G)[sp].d([m5C])[sp].d(A)[sp].d(T)[sp].[moe](T)p.[moe](G)p.[moe](A)[sp].[moe](A)}$$$$ (last 3' nucleoside missing)” belongs 3 score 0-7; to “RNA1{[moe]([m5C])[sp].[moe](A)p.[moe](G)p.[moe]([m5C])p.[moe]([m5C])p.d(A)[sp].d(G)[sp].d(G)[sp].d(T)[sp].d(G)[sp].d(T)[sp].d([m5C])[sp].d(T)[sp].d(T)[sp].d(A)[sp].[moe](T)p.[moe](A)p.[moe](T)[sp].[moe]([m5C])}$$$$ (last 3' nucleoside missing)”, 2.3 score 0-7; to “RNA1{[moe]([m5C])[sp].[moe](T)p.[moe](T)p.[moe]([m5C])p.[moe](A)p.d(T)[sp].d(T)[sp].d(A)[sp].d(T)[sp].d(T)[sp].d([m5C])[sp].d(T)[sp].d([m5C])[sp].d(T)[sp].d(A)[sp].[moe](G)p.[moe](T)p.[moe](G)[sp].[moe]([m5C])}$$$$ (last 3' nucleoside missing)”, 0 score 0-7. To “RNA1{[moe](G)[sp].[moe](G)p.[moe](G)p.[moe](A)p.[moe](A)p.d([m5C])[sp].d(A)[sp].d([m5C])[sp].d(A)[sp].d([m5C])[sp].d([m5C])[sp].d(A)[sp].d(T)[sp].d(T)[sp].d([m5C])[sp].[moe](A)p.[moe](G)p.[moe]([m5C])[sp].[moe](A)}$$$$ (last 3' nucleoside missing)” belongs 4.5 score 0-7; to “RNA1{[moe](G)[sp].[moe](G)p.[moe](A)p.[moe](G)p.[moe](G)p.d(G)[sp].d(A)[sp].d(G)[sp].d(G)[sp].d(A)[sp].d(A)[sp].d(A)[sp].d(A)[sp].d(T)[sp].d(T)[sp].[moe](A)p.[moe](T)p.[moe](T)[sp].[moe](T)}$$$$ (last 3' nucleoside missing)”, 0.5 score 0-7; to “RNA1{[moe](A)[sp].[moe](G)p.[moe](A)p.[moe](T)p.[moe](A)p.d([m5C])[sp].d(T)[sp].d([m5C])[sp].d(A)[sp].d([m5C])[sp].d(T)[sp].d([m5C])[sp].d(G)[sp].d([m5C])[sp].d(T)[sp].[moe](T)p.[moe](T)p.[moe](T)[sp].[moe]([m5C])}$$$$ (last 3' nucleoside missing)”, 3.2 score 0-7. In turn, “RNA1{[moe](A)[sp].[moe](G)p.[moe](G)p.[moe](T)p.d([m5C])[sp].d(A)[sp].d(A)[sp].d([m5C])[sp].d([m5C])[sp].d(A)[sp].d(A)[sp].d(T)[sp].d(T)[sp].d(T)[sp].[moe](G)p.[moe]([m5C])p.[moe](T)p.[moe](A)[sp].[moe](T)}$$$$ (last 3' nucleoside missing)” showed a 3 h FOB score of 1 score 0-7. To “RNA1{[moe]([m5C])[sp].[moe]([m5C])p.[moe](A)p.[moe](A)p.[moe]([m5C])p.d(T)[sp].d(T)[sp].d([m5C])[sp].d(A)[sp].d(T)[sp].d([m5C])[sp].d(A)[sp].d(A)[sp].d(T)[sp].d(A)[sp].[moe](T)p.[moe](T)p.[moe](T)[sp].[moe]([m5C])}$$$$ (last 3' nucleoside missing)” belongs 0 score 0-7; to “RNA1{[moe](T)[sp].[moe](G)p.[moe](A)p.[moe](G)p.[moe]([m5C])p.[moe](T)p.d(A)[sp].d(T)[sp].d([m5C])[sp].d(T)[sp].d(G)[sp].d(T)[sp].d(A)[sp].d([m5C])[sp].d(A)[sp].d(A)[sp].[moe](A)p.[moe](A)[sp].[moe](T)}$$$$ (last 3' nucleoside missing)”, 5.3 score 0-7; to “RNA1{[moe](G)[sp].[moe](T)p.[moe](G)p.[moe]([m5C])[sp].d(A)[sp].d(T)[sp].d(A)[sp].d([m5C])[sp].d([m5C])[sp].d([m5C])[sp].d(A)[sp].d(G)[sp].[moe](G)p.[moe](G)p.[moe](T)p.[moe](A)[sp].[moe](G)}$$$$ (last 3' nucleoside missing)”, 1 score 0-7. “RNA1{[moe](T)[sp].[moe]([m5C])p.[moe](A)p.[moe](G)p.[moe](T)p.d(T)[sp].d(A)[sp].d(G)[sp].d(T)[sp].d([m5C])[sp].d(A)[sp].d(G)[sp].d(G)[sp].d(T)[sp].d(T)[sp].[moe](A)p.[moe](G)p.[moe](G)[sp].[moe](G)}$$$$ (last 3' nucleoside missing)” showed a 3 h FOB score of 4.2 score 0-7. As for “RNA1{[moe](T)[sp].[moe](G)p.[moe](T)p.[moe](T)p.[moe](G)p.d(T)[sp].d(A)[sp].d(T)[sp].d(G)[sp].d([m5C])[sp].d(A)[sp].d(G)[sp].d(G)[sp].d(T)[sp].d(T)[sp].[moe]([m5C])p.[moe](A)p.[moe](T)[sp].[moe]([m5C])}$$$$ (last 3' nucleoside missing)”, the figure is 4.5 score 0-7; as for “RNA1{[moe]([m5C])[sp].[moe](G)p.[moe](T)p.[moe](G)p.d(A)[sp].d(G)[sp].d([m5C])[sp].d(T)[sp].d(A)[sp].d(T)[sp].d([m5C])[sp].d(T)[sp].d(G)[sp].d(T)[sp].[moe](A)p.[moe]([m5C])p.[moe](A)p.[moe](A)[sp].[moe](A)}$$$$ (last 3' nucleoside missing)”, 4 score 0-7.
